Measurements from patent publication US9707417B2, “Use of benzotropolone derivatives as UV absorbers and antioxidants and their use in sunscreens and/or cosmetic compositions” (BASF SE, priority 2008, dated 2017).
Entries after “also recorded” stand apart in the source; their conditions may differ.

Assay: UV shielding properties (UV spectra in ethanol)
Format: physicochemical
Parameters: Absorption maximum 1 λmax / Absorption maximum 2 λmax: unit not given here
Settings: for Absorption maximum 1 A^1%1 cm / Absorption maximum 1 λmax / Absorption maximum 2 A^1%1 cm / Absorption maximum 2 λmax: UV spectra in ethanol
Source text: The UV shielding properties of the benzotropolone derivatives were investigated by measuring their UV spectra in ethanol.
In the following table the investigated absorption maxima (λmax) together with the corresponding A^1%1cm values are listed.

## COC(=O)c1cc(O)c(=O)c2c(O)c(O)c(C)cc2c1 [Compound B-6]
  shielding properties in the UV region (in words): high shielding properties in the UV region; also recorded: UV-C/UV-B shielding properties as well as UV-A shielding properties
  Absorption maximum 1 A^1%1 cm: 997
  Absorption maximum 1 λmax: 280
  Absorption maximum 2 A^1%1 cm: 447
  Absorption maximum 2 λmax: 396

## COC(=O)c1cc(O)c(=O)c2c(O)c(O)c(O[C@@H]3O[C@H](CO)[C@@H](O)[C@H](O)[C@H]3O)cc2c1 [Compound B-7]
  Absorption maximum 1 A^1%1 cm: 593
  Absorption maximum 1 λmax: 287
  Absorption maximum 2 A^1%1 cm: 246
  Absorption maximum 2 λmax: 399

## COC(=O)c1cc(O)c(=O)c2c(O)c(O)c(OCCCCCC(=O)O)cc2c1 [Compound B-15]
  Absorption maximum 1 A^1%1 cm: 754
  Absorption maximum 1 λmax: 310
  Absorption maximum 2 A^1%1 cm: 269
  Absorption maximum 2 λmax: 398

## COC(=O)c1cc(O)c(=O)c2c(O)c(O)c(O[C@@H]3O[C@H](CO)[C@H](O)[C@H](O)[C@H]3O)cc2c1 [Compound B-16]
  Absorption maximum 1 A^1%1 cm: 550
  Absorption maximum 1 λmax: 288
  Absorption maximum 2 A^1%1 cm: 204
  Absorption maximum 2 λmax: 397

## Cc1cc2cc(C(=O)O)cc(O)c(=O)c2c(O)c1O [Compound B-31]
  Absorption maximum 1 A^1%1 cm: 1065
  Absorption maximum 1 λmax: 281
  Absorption maximum 2 A^1%1 cm: 477
  Absorption maximum 2 λmax: 393

## CCCCCCCCCCCCOc1cc2cc(C(=O)OCCCCCCCC)cc(O)c(=O)c2c(O)c1O [Compound B-33]
  Absorption maximum 1 A^1%1 cm: 575
  Absorption maximum 1 λmax: 310
  Absorption maximum 2 A^1%1 cm: 210
  Absorption maximum 2 λmax: 403

## CCCCCCCCOC(=O)c1cc(O)c(=O)c2c(O)c(O)c(C)cc2c1 [Compound B-34]
  Absorption maximum 1 A^1%1 cm: 748
  Absorption maximum 1 λmax: 282
  Absorption maximum 2 A^1%1 cm: 333
  Absorption maximum 2 λmax: 398

## CCCCCCCCCCCCOc1cc2cc(C(=O)OC)cc(O)c(=O)c2c(O)c1O [Compound B-35]
  Absorption maximum 1 A^1%1 cm: 611
  Absorption maximum 1 λmax: 310
  Absorption maximum 2 A^1%1 cm: 231
  Absorption maximum 2 λmax: 404

## COC(=O)c1cc(O)c(=O)c2c(O)c(O)c(O[C@@H]3O[C@H](COC(C)=O)[C@H](OC(C)=O)[C@H](OC(C)=O)[C@H]3OC(C)=O)cc2c1 [Compound B-37]
  Absorption maximum 1 A^1%1 cm: 394
  Absorption maximum 1 λmax: 285
  Absorption maximum 2 A^1%1 cm: 88
  Absorption maximum 2 λmax: 393

## COC(=O)c1cc(O)c(=O)c2c(OC)c(O)c(OCCO)cc2c1 [Compound B-45]
  Absorption maximum 1 A^1%1 cm: 804
  Absorption maximum 1 λmax: 306
  Absorption maximum 2 A^1%1 cm: 302
  Absorption maximum 2 λmax: 401

## Cc1cc2cc(C(=O)NCCCCP(=O)(O)O)cc(O)c(=O)c2c(O)c1O [Compound B-49]
  Absorption maximum 1 A^1%1 cm: 601
  Absorption maximum 1 λmax: 278
  Absorption maximum 2 A^1%1 cm: 270
  Absorption maximum 2 λmax: 381

## COc1cc2cc(CO)cc(O)c(=O)c2c(O)c1O [Compound B-50]
  Absorption maximum 1 A^1%1 cm: 1027
  Absorption maximum 1 λmax: 305

## COC(=O)c1cc(O)c(=O)c2c(O)c(O)cc(CCO)c2c1 [Compound B-52]
  Absorption maximum 1 A^1%1 cm: 437
  Absorption maximum 1 λmax: 280
  Absorption maximum 2 A^1%1 cm: 176
  Absorption maximum 2 λmax: 399

## CCCCCCCCCCCCOC(=O)c1cc(O)c(=O)c2c(O)c(O)c(OCCCCCCCCCCCC)cc2c1 [Compound B-53]
  Absorption maximum 1 A^1%1 cm: 533
  Absorption maximum 1 λmax: 309
  Absorption maximum 2 A^1%1 cm: 193
  Absorption maximum 2 λmax: 402

## CCc1ccc2c(CC)c(O)c(O)c(O)c2c(=O)c1O [Compound B-54]
  Absorption maximum 1 A^1%1 cm: 1142
  Absorption maximum 1 λmax: 309

## CCCCc1ccc2c(CCCC)c(O)c(O)c(O)c2c(=O)c1O [Compound B-55]
  Absorption maximum 1 A^1%1 cm: 788
  Absorption maximum 1 λmax: 311

## O=C(O)c1cc(O)c(=O)c2c(O)c(O)c(O[C@@H]3O[C@H](CO)[C@@H](O)[C@H](O)[C@H]3O)cc2c1 [Compound B-59]
  Absorption maximum 1 A^1%1 cm: 497
  Absorption maximum 1 λmax: 300
  Absorption maximum 2 A^1%1 cm: 174
  Absorption maximum 2 λmax: 388

## Cc1cc2cc(CO)cc(O)c(=O)c2c(O)c1O [Compound B-61]
  Absorption maximum 1 A^1%1 cm: 711
  Absorption maximum 1 λmax: 295

## COC(=O)c1cc(O)c(=O)c2c(O)c(O)cc(CCC(=O)O)c2c1 [Compound B-62]
  Absorption maximum 1 A^1%1 cm: 799
  Absorption maximum 1 λmax: 281
  Absorption maximum 2 A^1%1 cm: 383
  Absorption maximum 2 λmax: 406
